Assay results taken from ChEMBL document CHEMBL4118122, “Identification and biological evaluation of thiazole-based inverse agonists of RORγt” (Bioorg Med Chem Lett, 2018).
Values after ≈ are worked out from the molar mass of the structure shown.

Assays:
[1] = biological target: Cytochrome P450 2D6 (Homo sapiens, UniProt P10635); experiment: Inhibition of CYP2D6 (unknown origin); format: ADME
[2] = Thermodynamic solubility of the compound in 30 mM phosphate buffer at 10 mM at pH 7 after 2 to 5 days by UV-HPLC analysis; format: physicochemical; details: read-out: Therm_solubility
[3] = Thermodynamic solubility of the compound in fasted state simulated intestinal […] after 2 to 5 days by UV-HPLC analysis; format: physicochemical; details: read-out: Therm_solubility
[4] = biological target: T1, PXR (NR1I2) (Homo sapiens, UniProt O75469); experiment: […] at PXR LBD (unknown origin) expressed in HEK293 cells […] at 10 uM after 16 hrs by luciferase reporter gene assay relative to rifampicin; format: ADME, cell-based; details: HEK293 cells expressing PXR LBD, read-out: Efficacy
T1 sequence (O75469 whole entry): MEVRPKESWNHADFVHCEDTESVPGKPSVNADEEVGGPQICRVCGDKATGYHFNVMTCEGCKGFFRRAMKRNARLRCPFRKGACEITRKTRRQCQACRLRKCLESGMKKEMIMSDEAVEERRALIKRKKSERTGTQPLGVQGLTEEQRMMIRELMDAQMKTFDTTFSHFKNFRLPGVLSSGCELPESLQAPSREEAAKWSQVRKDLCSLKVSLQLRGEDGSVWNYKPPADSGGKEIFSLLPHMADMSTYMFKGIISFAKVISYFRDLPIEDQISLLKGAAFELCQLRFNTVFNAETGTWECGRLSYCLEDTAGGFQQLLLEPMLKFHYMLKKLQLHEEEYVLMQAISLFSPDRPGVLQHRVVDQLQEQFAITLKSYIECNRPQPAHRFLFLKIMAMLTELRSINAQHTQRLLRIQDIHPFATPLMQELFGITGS

[5] = Tmax in Sprague-Dawley rat at 2.5 mg/kg, po; format: ADME, organism-based; details: in vivo
[6] = Cmax in Sprague-Dawley rat at 2.5 mg/kg, po; format: ADME, organism-based; parameters: dose 2.5 mg/kg, route oral; details: in vivo
[7] = Half life in human microsomes; format: ADME, Microsome
[8] = Initial plasma concentration in Sprague-Dawley rat at 0.5 mg/kg, iv; format: ADME, organism-based
[9] = Clearance in Sprague-Dawley rat at 0.5 mg/kg, iv; format: ADME, organism-based; details: in vivo
[10] = biological target: Cytochrome P450 2C19 (Homo sapiens, UniProt P33261); experiment: Inhibition of CYP2C19 (unknown origin); format: ADME
Cytochrome P450 2C19, sequence (P33261 whole entry): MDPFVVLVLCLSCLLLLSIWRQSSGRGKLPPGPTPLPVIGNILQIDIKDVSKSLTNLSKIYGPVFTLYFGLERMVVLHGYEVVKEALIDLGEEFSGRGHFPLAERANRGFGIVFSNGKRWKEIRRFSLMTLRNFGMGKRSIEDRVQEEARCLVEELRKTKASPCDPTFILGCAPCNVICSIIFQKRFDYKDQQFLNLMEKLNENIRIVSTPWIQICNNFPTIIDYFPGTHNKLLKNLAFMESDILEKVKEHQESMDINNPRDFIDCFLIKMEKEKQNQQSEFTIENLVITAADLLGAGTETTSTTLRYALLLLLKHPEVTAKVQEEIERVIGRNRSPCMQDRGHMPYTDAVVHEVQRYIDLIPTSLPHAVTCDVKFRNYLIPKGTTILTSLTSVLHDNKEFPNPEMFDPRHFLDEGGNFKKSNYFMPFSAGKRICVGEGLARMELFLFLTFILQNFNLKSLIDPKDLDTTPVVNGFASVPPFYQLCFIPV

[11] = biological target: Cytochrome P450 2C9 (Homo sapiens, UniProt P11712); experiment: Inhibition of CYP2C9 (unknown origin); format: ADME
Cytochrome P450 2C9, sequence (P11712 whole entry): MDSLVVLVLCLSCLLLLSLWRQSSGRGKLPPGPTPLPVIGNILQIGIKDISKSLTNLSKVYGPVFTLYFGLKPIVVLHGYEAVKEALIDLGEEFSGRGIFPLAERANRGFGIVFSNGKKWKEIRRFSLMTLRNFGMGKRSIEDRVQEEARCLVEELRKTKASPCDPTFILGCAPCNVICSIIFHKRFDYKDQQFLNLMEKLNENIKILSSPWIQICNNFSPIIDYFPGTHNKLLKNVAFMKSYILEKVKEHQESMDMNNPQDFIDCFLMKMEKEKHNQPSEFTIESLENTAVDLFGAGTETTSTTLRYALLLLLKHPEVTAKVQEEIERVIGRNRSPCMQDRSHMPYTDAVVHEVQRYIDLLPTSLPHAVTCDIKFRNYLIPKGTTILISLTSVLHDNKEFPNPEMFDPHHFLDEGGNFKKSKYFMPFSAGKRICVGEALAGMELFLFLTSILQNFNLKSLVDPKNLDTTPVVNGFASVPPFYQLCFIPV

[12] = biological target: T2, Cytochrome P450 1A2 (Homo sapiens, UniProt P05177); experiment: Inhibition of CYP1A2 (unknown origin); format: ADME
T2 sequence (P05177 whole entry): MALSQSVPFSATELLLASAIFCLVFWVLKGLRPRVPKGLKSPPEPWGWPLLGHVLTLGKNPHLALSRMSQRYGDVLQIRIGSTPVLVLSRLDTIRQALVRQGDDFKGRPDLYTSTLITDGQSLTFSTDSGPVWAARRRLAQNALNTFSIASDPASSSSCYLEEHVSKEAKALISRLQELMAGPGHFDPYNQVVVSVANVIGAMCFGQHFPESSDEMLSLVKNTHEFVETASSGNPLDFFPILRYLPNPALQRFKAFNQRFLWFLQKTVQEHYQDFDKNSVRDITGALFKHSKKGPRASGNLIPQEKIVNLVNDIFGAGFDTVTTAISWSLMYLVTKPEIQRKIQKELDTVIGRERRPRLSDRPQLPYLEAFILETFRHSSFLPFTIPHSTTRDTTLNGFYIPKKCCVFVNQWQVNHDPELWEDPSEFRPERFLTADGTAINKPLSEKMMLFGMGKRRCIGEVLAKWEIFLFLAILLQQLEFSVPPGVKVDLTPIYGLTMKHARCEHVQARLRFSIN

[13] = Volume of distribution at steady state in Sprague-Dawley rat at 0.5 mg/kg, iv; format: ADME, organism-based; details: in vivo, read-out: Vdss
[14] = (§1) AUC (0 to infinity) in Sprague-Dawley rat at 0.5 mg/kg, iv; format: ADME, organism-based; parameters: dose 0.5 mg/kg, route intravenous, time infinity; details: Sprague-Dawley, in vivo
[15] = AUC (0 to infinity) in Sprague-Dawley rat at 2.5 mg/kg, po; format: ADME, organism-based; parameters: dose 2.5 mg/kg, time infinity, route oral; details: in vivo
[16] = Half life in rat microsomes; format: ADME, Microsome
[17] = biological target: T1, PXR (NR1I2); experiment: […] at PXR LBD (unknown origin) expressed in HEK293 cells […] at 1 uM after 16 hrs by luciferase reporter gene assay relative to rifampicin; format: ADME, cell-based; details: HEK293 cells expressing PXR LBD, read-out: Efficacy
[18] = Oral bioavailability in Sprague-Dawley rat at 2.5 mg/kg; format: ADME, organism-based; details: in vivo
[19] = biological target: T3, Cytochrome P450 2C8 (Homo sapiens, UniProt P10632); experiment: Inhibition of CYP2C8 (unknown origin); format: ADME
T3 sequence (P10632 whole entry): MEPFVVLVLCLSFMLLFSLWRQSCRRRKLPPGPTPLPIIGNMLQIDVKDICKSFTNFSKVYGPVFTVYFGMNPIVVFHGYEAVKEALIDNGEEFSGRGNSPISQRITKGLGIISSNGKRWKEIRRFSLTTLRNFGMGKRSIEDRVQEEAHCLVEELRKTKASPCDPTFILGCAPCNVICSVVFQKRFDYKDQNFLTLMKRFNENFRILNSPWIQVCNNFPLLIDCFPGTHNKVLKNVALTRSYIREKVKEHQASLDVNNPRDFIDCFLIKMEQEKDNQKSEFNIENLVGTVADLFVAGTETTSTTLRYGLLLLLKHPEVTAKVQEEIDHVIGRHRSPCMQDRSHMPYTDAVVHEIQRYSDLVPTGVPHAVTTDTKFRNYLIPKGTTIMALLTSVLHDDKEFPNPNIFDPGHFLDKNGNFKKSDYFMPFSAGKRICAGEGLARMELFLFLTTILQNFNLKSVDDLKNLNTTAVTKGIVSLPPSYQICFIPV

[20] = Half life in Sprague-Dawley rat at 0.5 mg/kg, iv; format: ADME, organism-based; details: in vivo
[21] = biological target: Cytochrome P450 3A4 (Homo sapiens, UniProt P08684); experiment: Inhibition of CYP3A4 (unknown origin); format: ADME
Cytochrome P450 3A4, sequence (P08684 whole entry): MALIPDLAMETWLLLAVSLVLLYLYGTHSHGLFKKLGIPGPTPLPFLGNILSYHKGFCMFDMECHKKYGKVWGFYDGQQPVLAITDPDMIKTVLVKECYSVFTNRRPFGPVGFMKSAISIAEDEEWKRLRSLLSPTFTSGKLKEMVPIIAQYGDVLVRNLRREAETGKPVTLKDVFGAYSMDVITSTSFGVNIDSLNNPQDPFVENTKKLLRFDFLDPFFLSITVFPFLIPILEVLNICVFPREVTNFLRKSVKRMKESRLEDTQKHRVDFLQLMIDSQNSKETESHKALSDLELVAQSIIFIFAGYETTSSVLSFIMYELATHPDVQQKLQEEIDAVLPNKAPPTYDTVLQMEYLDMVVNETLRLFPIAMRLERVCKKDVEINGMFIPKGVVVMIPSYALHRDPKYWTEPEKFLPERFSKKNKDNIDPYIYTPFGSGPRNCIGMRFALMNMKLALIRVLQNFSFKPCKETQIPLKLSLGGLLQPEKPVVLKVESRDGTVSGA

[22] = Terminal half life in Sprague-Dawley rat at 2.5 mg/kg, po; format: ADME, organism-based; details: in vivo, read-out: beta t1/2 (converted)
[23] = Glutathione reactivity assessed as GSH adduct formation; format: physicochemical
[24] = tested on: Rattus norvegicus; experiment: as §1; format: ADME, organism-based; parameters: dose 0.5 mg/kg, route intravenous, time infinity; details: in vivo

Cytochrome P450 2D6, sequence (P10635 whole entry): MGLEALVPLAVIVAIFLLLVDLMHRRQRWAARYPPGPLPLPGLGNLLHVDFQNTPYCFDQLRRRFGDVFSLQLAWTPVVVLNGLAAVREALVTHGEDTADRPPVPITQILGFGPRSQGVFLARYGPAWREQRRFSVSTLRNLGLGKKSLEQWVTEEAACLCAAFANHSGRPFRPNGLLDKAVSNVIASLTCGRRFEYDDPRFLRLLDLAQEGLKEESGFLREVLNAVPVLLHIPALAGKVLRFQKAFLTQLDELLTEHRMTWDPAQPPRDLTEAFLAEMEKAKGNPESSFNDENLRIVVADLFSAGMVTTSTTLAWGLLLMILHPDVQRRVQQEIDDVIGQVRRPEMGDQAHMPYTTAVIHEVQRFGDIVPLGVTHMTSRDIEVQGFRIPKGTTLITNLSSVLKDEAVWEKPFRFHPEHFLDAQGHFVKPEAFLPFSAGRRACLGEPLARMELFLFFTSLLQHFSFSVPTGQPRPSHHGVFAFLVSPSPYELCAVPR

INH [1] [µM] | solubility thermodynamic at 10000 µM [2] [µM] | solubility thermodynamic [3] [µM] | Emax at 16 h, 10 µM [4] [%] | Tmax [5] [min] | Cmax [6] [ng/mL] | half-life [7] [min] | C0 [8] [ng/mL] | INH [10] [µM] | INH [11] [µM] | INH [12] [µM] | Vd [13] [L/kg] | AUC(0-inf) [15] [ng·h/mL] | half-life [16] [min] | Emax at 16 h, 1 µM [17] [%] | bioavailability [18] [%] | INH [19] [µM] | half-life [20] [min] | INH [21] [µM] | half-life [22] [min] | SMILES | also measured
> 10 | < 1 | < 4 | 160 | 60 | 269 | 18 | 518 | > 10 | 1.6 | > 10 | 4.8 | 1580 | 55 | 139 | 87.7 | > 10 | 90 | > 10 | 180 | CC(C)(C)NS(=O)(=O)c1ccc(-c2sc(C(=O)N3CC4(C3)CS(=O)(=O)C4)nc2CC2CCCCC2)c(Cl)c1Cl | clearance [9]: 42.5 mL/min/kg; AUC(0-inf) [14]: 360 ng·h/mL
– | – | – | – | – | – | – | – | – | – | – | – | – | – | – | – | – | – | – | – | C[C@H](NS(=O)(=O)c1ccc(-c2sc(C(=O)N[C@H]3C[C@H](C(=O)O)C3)nc2CC2CCCCC2)c2ccccc12)C(F)(F)F | Stability [23]: Stable
> 10 | 13 (≈ 7.6 µg/mL) | 382 (≈ 223 µg/mL) | 102 | 24 | 52 | 77 | 2800 | > 10 | > 10 | > 10 | 1.1 | 87 | 61 | 18 | 7.5 | > 10 | 18 | > 10 | 150 | CC(C)(C)NS(=O)(=O)c1ncc(-c2sc(C(=O)N[C@H]3C[C@H](C(=O)O)C3)nc2CC2CCCCC2)c2ccccc12 | AUC [24]: 232 ng·h/mL
